Broadly, the IC50 is the point on the concentration scale where inhibition reaches its midpoint. Higher therefore signals lower potency. As a reminder, the Ki is a dissociation constant, usually derived from enzyme kinetics or from competition with a known ligand. Higher therefore signals lower affinity. As a reminder, the solubility is the concentration that dissolves in the medium under given conditions. Low values mean little dissolved substance, high ones much dissolved substance.

Data on 16 compounds can be found in publication PMC8040948 (Journal of medicinal chemistry, 2020).

The test system of one data set is ASP/OVA-sensitized mice. Nature of the data set: Ovalbumin/Aspergillus protease mouse model of allergic asthma, BALF cell counts. Conditions: 10 mg/kg ip 30 min prior to allergen challenge, BALF 2 days post-challenge.
For data set [1], the system named is 46 receptors, transporters, and ion channels. Conditions: non-P2YR off-target screen; ref [8],[9]; cited from earlier work.
Another data set concerns other P2YRs. Conditions: ref [8],[17]; cited from earlier work.
The subject of data set [2] is CCI of the sciatic nerve in adult male ICR mice. Conditions: mouse, 10 μmol/kg, ip; ref Mufti et al.[12]; cited from earlier work.
Data set [3] can be described thus: Plasma protein binding in three species.
In a further data set the target is CB1 cannabinoid receptor (Homo sapiens, UniProt P21554). The data set can be described thus: PDSP functional agonist/antagonist assay, CB1. In kind it is cell-based.
The next data set has as its target CB2 cannabinoid receptor (Homo sapiens, UniProt P34972). Nature of the data set: PDSP functional agonist/antagonist assay, CB2. The class given is cell-based.
Data set [4] addresses T1, hP2Y14R (Homo sapiens, UniProt Q15391).
T1 sequence (Q15391 1-338): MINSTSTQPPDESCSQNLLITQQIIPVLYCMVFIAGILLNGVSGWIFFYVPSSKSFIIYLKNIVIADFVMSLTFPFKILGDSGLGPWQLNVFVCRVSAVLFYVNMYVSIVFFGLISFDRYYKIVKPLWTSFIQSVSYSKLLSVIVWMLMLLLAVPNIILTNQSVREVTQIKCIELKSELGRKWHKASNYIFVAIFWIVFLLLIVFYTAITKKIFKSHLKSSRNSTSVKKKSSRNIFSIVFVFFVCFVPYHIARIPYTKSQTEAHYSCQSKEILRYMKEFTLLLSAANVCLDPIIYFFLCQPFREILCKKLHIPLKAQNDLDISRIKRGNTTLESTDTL
The class given is binding. Conditions: for fold lower hP2Y14R affinity than 22: relative to reference 22; for fold lower hP2Y14R affinity than 2: relative to reference triazole 2.

Another data set deals with δ-opioid (DOR) receptor (Homo sapiens, UniProt P41143). Nature of the data set: PDSP off-target binding, DOR.
Data set [5] can be described thus: Observed solubility in water, DMSO or aqueous DMSO. Conditions: for solubility in DMSO at 1 mM: as a zwitterion, 1 mM in DMSO.
In a further data set the target is T2, mP2Y14R (Mus musculus, UniProt Q9ESG6).
T2 sequence (Q9ESG6 1-338): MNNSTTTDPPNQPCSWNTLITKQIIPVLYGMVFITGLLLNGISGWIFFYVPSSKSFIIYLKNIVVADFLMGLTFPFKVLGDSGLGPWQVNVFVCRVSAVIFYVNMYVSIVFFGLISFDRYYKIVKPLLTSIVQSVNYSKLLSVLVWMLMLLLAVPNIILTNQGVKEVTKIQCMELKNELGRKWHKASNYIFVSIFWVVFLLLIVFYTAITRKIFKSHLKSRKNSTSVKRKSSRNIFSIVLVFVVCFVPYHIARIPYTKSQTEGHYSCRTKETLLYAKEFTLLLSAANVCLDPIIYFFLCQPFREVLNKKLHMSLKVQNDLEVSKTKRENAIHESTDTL
Conditions: mP2Y14R-expressing HEK293 cells, 1 μM, fluorescence micrographs; ref [12]; cited from earlier work.

Data set [6] concerns the target T1, hP2Y14R. The data set can be described thus: Competitive binding assay of CHO-hP2Y14R cells at different pH levels.
A short description of data set [7]: Aqueous solubility, pION method. Conditions: Table 5, pION method.
A short description of data set [8]: Pharmacokinetics in the rat, ip and iv.

In brackets after ≈: the same amount, converted by molar mass. Entries after “also recorded” stand apart in the source; their conditions may differ. Read-outs that look alike come from different tables or passages of the source.

CB1 cannabinoid receptor, sequence (P21554 whole entry): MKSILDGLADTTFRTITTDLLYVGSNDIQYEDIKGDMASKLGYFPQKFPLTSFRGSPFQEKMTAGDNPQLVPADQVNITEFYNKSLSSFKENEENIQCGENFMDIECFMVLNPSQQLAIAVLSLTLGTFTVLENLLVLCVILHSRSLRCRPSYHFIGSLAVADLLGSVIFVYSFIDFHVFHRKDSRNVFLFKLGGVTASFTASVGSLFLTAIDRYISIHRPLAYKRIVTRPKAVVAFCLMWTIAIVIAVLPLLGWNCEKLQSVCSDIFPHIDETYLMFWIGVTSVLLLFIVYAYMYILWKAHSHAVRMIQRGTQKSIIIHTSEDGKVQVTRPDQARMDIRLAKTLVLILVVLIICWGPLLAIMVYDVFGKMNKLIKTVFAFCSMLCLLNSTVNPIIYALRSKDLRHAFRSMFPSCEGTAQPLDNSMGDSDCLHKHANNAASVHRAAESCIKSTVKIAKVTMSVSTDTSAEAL
CB2 cannabinoid receptor, sequence (P34972 whole entry): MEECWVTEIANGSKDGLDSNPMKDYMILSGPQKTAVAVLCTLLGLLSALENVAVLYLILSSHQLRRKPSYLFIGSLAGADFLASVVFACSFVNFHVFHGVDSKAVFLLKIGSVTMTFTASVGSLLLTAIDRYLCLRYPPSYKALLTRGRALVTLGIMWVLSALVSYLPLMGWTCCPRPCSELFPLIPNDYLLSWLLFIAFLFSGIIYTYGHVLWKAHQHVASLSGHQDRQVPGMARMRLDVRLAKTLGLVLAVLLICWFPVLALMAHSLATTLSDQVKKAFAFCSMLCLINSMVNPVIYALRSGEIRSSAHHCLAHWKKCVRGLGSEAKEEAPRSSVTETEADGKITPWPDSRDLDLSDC
δ-opioid (DOR) receptor, sequence (P41143 whole entry): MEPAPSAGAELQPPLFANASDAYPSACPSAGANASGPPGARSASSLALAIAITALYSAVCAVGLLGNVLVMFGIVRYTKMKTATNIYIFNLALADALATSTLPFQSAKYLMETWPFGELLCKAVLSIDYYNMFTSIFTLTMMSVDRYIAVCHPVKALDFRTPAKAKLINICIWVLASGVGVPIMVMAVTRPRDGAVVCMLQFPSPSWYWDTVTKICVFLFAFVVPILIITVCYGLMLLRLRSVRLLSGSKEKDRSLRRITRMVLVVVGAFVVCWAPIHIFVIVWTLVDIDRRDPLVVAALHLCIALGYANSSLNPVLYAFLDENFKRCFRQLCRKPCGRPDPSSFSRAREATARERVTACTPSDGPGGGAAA

In the case of `O=C(O)c1cc(-c2ccc(C3CCNCC3)cc2)cc(-n2cc(-c3ccc(C(F)(F)F)cc3)nn2)c1` [Compound 2, reference compound], the “effect on eosinophilic airway inflammation” value (“effect” for short) in the data set with ASP/OVA-sensitized mice was “inactive”. Also, the off-target interactions result in data set [1] is reported as “no detected off-target interactions”. Further, in the data set on other P2YRs, the “activity at other P2YRs” value was “inactive”.

Regarding `CC(=O)N1CCC(c2ccc(-c3cc(C(=O)O)cc4cc(-c5ccc(C(F)(F)F)cc5)ccc34)cc2)CC1` [Compound 8, 4-(4-(1-(Acetyl)piperidin-4-yl)phenyl)-7-(4-(trifluoromethyl)phenyl)-2-naphthoic Acid], the “efficacy in CCI model” value in data set [2] was “effective”.

On to `C#CCCCCN1CCC(c2ccc(-c3cc(C(=O)O)cc4cc(-c5ccc(C(F)(F)F)cc5)ccc34)cc2)CC1` [Compound 7a, 4-(4-(1-(Hex-5-yn-1-yl)piperidin-4-yl)phenyl)-7-(4-(trifluoromethyl)phenyl)-2-naphthoic Acid], for which the “effect” value with ASP/OVA-sensitized mice is on record as “protected; also recorded: highest potency of reducing eosinophil infiltration”. Also, in [1], the off-target interactions result is listed as “no detected off-target interactions”.

Turning to `O=C(O)c1cc(-c2ccc(C3CCNCC3)cc2)cc(-c2cn(-c3ccc(C(F)(F)F)cc3)nn2)c1` [Compound 25, 4′-(Piperidin-4-yl)-5-(1-(4-(trifluoromethyl)phenyl)-1H-1,2,3-triazol-4-yl)-[1,1′-biphenyl]-3-carboxylic Acid], the plasma protein binding entry in data set [3] was “high”. Also, the IC50 at CB1 cannabinoid receptor and on CB2 cannabinoid receptor was more than 10 µM throughout.

`C[N+]12CCC(c3ccc(-c4cc(C(=O)O)cc5cc(-c6ccc(C(F)(F)F)cc6)ccc45)cc3)(CC1)CC2` [Compound 21, 4-(4-(1-Methylquinuclidin-1-ium-4-yl)phenyl)-7-(4-(trifluoromethyl)phenyl)-2-naphthoate]: the plasma protein binding result in [3] is “high”.

With `NC(=O)c1ccc(-c2cc(NC(=O)c3ccc(C(F)(F)F)cc3)cc(C(=O)O)c2)cc1` [Compound 27, 4′-Carbamoyl-5-(4-(trifluoromethyl)benzamido)-[1,1′-biphenyl]-3-carboxylic Acid], the “fold lower hP2Y14R affinity than 22” value on hP2Y14R [4] is 11 fold.

Consider `NC(=O)c1ccc(-c2cc(C(=O)O)cc(-c3cn(-c4ccc(C(F)(F)F)cc4)nn3)c2)cc1` [Compound 24, 4′-Carbamoyl-5-(1-(4-(trifluoromethyl)phenyl)-1H-1,2,3-triazol-4-yl)-[1,1′-biphenyl]-3-carboxylic Acid], for which the “fold lower hP2Y14R affinity than 22” value on hP2Y14R [4] amounted to 6.2 fold.

For the compound `O=C(O)c1cc(NC(=O)C23C4C5C2C2C3C4C52CO)cc(-c2ccc(C3CCNCC3)cc2)c1` (stereo not drawn) [Compound 28, 5-(4-(Hydroxymethyl)cubane-1-carboxamido)-4′-(piperidin-4-yl)-[1,1′-biphenyl]-3-carboxylic Acid], the IC50 was more than 100 µM against hP2Y14R [4] (IC50 (μM), Table 1B, cells that print only footnote mark c) and more than 100 µM against hP2Y14R [4] (IC50 at hP2Y14R).

As to `NCCCNC(=O)c1ccc(-c2cc(C(=O)O)cc(-n3cc(-c4ccc(C(F)(F)F)cc4)nn3)c2)s1` [Compound 23, reference compound], in the data set with ASP/OVA-sensitized mice, the “effect” value was “protected”. Besides, the plasma protein binding result in [3] is on record as “high”.

The compound `O=C(O)c1cc(-c2ccc(C3CCNCC3)cc2)c2nc(-c3ccc(C(F)(F)F)cc3)[nH]c2c1` [Compound 35, 4-(4-(Piperidin-4-yl)phenyl)-2-(4-(trifluoromethyl)phenyl)-1H-benzo[d]imidazole-6-carboxylic Acid] displayed an IC50 at hP2Y14R [4] (IC50 at hP2Y14R) of more than 100 µM.

As for `CCCN1CCC(c2ccc(-c3cc(C(=O)O)cc4cc(-c5ccc(C(F)(F)F)cc5)ccc34)cc2)CC1` [Compound 6b, 4-(4-(1-Propylpiperidin-4-yl)phenyl)-7-(4-(trifluoromethyl)phenyl)-2-naphthoic Acid], the off-target interactions entry in data set [1] is reported as “no detected off-target interactions”.

Take `O=C(O)c1cc(-c2ccc(C34CCNCC3C4)cc2)cc(-n2cc(-c3ccc(C(F)(F)F)cc3)nn2)c1` (stereo not drawn) [Compound 19, 4′-(3-Azabicyclo[4.1.0]heptan-6-yl)-5-(4-(4-(trifluoromethyl)phenyl)-1H-1,2,3-triazol-1-yl)-[1,1′-biphenyl]-3-carboxylic Acid]: the “fold lower hP2Y14R affinity than 2” value at hP2Y14R [4] amounted to 11 fold.

In turn, `NCCCNC(=O)c1ccc(-c2cc(C(=O)O)cc(-c3cn(-c4ccc(C(F)(F)F)cc4)nn3)c2)s1` [Compound 26, 3-(5-((3-Aminopropyl)carbamoyl)thiophen-2-yl)-5-(1-(4-(trifluoromethyl)phenyl)-1H-1,2,3-triazol-4-yl)benzoic Acid] showed a Ki on δ-opioid (DOR) receptor of 2.96 µM. This lies in the single-digit micromolar range.

In the case of `O=C(O)c1cc(-c2ccc(C34CCNCC3C4(F)F)cc2)cc(-n2cc(-c3ccc(C(F)(F)F)cc3)nn2)c1` (stereo not drawn) [Compound 20, 4′-(7,7-Difluoro-3-azabicyclo[4.1.0]heptan-6-yl)-5-(4-(4-(trifluoromethyl)phenyl)-1H-1,2,3-triazol-1-yl)-[1,1′-biphenyl]-3-carboxylic Acid], the “fold lower hP2Y14R affinity than 2” value at hP2Y14R [4] worked out at 20 fold.

On to `O=C(O)c1cc(-c2ccc(C3CCNCC3)cc2)c2ccc(-c3ccc(C(F)(F)F)cc3)cc2c1` [Compound 1, 4-[4-(4-piperidinyl)-phenyl]-7-[4-(trifluoromethyl)phenyl]-2-naphthalenecarboxylic acid, reference compound], for which the “effect” value in the data set with ASP/OVA-sensitized mice is reported as “protected; also recorded: strongly attenuated eosinophilic airway inflammation”. Also, the “solubility in DMSO at 1 mM” value in [5] is listed as “failed to dissolve”. The half-inhibitory concentration (IC50) at CB1 cannabinoid receptor and on CB2 cannabinoid receptor was more than 10 µM in each case. Besides, the “efficacy in CCI model” value in data set [2] is “effective”. Also, the “inhibition of intact cell binding of 36” value on mP2Y14R is reported as “almost completely inhibited”.

Turning to `O=C(O)c1cc(-c2ccc(C34CCN(CC3)CC4)cc2)c2ccc(-c3ccc(C(F)(F)F)cc3)cc2c1` [Compound 17, 4-(4-(Quinuclidin-4-yl)phenyl)-7-(4-(trifluoromethyl)phenyl)-2-naphthoic Acid], the half-inhibitory concentration (IC50) on hP2Y14R [6] came to 0.0308 ± 0.0022 µM. Besides, the “effect” value in the data set with ASP/OVA-sensitized mice was “protected”. Further, the plasma protein binding entry in [3] was “high”. For the same compound, the solubility in data set [5] was not below 1000 µg/mL; in [7] (pH 4, aqueous solubility (pH 4.0, μg/mL), pH 4.0, mean ± SD) it was 14.3 ± 0.5 µg/mL (≈ 28.5 µM); in data set [7] (pH 7.4, aqueous solubility (pH 7.4, μg/mL), pH 7.4, mean ± SD), 0.44 ± 0.06 µg/mL (≈ 0.877 µM). The “solubility in DMSO at 1 mM” value in [5] is on record as “readily soluble”. For the same compound, the “time at which maximal plasma concentration was reached” value in data set [8] fell in the range of 3 to 4 h. Further, in data set [8] (highest dose (10 mg/kg), 12 h), the “plasma concentration at the 12 h time point” value lay in the range of 200 to 400 ng/kg.
